From patent US6197258A, “Photoluminescent sensors of chemical analytes” (University of Maryland, Baltimore, priority 1999, dated 2001)
Like-named read-outs stand apart in the source and are kept apart here.

Assays:
[1] = target: T1, recombinant human carbonic anhydrase II, wild type, holoprotein (holo-CA, Zn(II) bound) (Homo sapiens, UniProt P00918); assay: Affinity of ABD-M for holo-CA from changes in fluorescence intensity or anisotropy; assay type: binding; settings: holocarbonic anhydrase
T1 construct: made in house; host or cells: E. coli (inferred from 'as previously described'; b198 states E. coli for the wild type gene, b110 states BL21(DE3)pACA for a variant)
Text: Our approach for determining metal ions by fluorescence anisotropy is diagrammed in FIG. 16. ABD-M was synthesized by coupling ABD-F (7-fluoro-benz-2-oxa-1,3-diazole-4-sulfonamide; Molecular Probes Cat. No.F-6053) with excess beta-mercaptoethanol in dimethylformamide overnight at room temperature (FIG. 17). […] Recombinant human carbonic anhydrase II was expressed, isolated, and purified; and its Zn(II) removed by treatment with dipicolinate all as previously described. In view of the well-known difficulty of reproducibly preparing solutions with low concentrations of free zinc ion, we prepared a series of metal ion buffers using nitrilotriacetic acid (NTA) and MOPS. […] The concentration of Zn(II) unbound at a particular pH is readily calculable from the known stability constants of the NTA and the pKa's of NTA's ionizable groups (19). […]
Fluorescence spectra, intensities and anisotropies were measured on a Spectronics AB-2 fluorimeter using film polarizers and 4 nm bandpasses. Frequency-dependent phase shifts and demodulations were measured on an ISS K2 phase fluorometer using the UV lines of a Spectra-Physics 2065 argon ion laser for excitation, dimethylPOPOP in ethanol as a reference compound as previously described, and bandpass filters as indicated in the figure legends. […]

[2] = target: T2, recombinant human carbonic anhydrase II, holocarbonic anhydrase II (Homo sapiens, UniProt P00918); assay: Affinity of holocarbonic anhydrase for Dapoxyl sulfonamide from fluorescence intensity changes; assay type: binding; settings: from fluorescence intensity changes (data not shown)
T2 construct: made in house; host or cells: E. coli (inferred from 'by the means previously discussed herein'; b110 states E. coli BL21(DE3)pACA for a variant)
Description: The recombinant human carbonic anhydrase II was obtained by the means previously discussed herein. Fluorescence spectra and anisotropies were determined on a Spectronics AB-2 spectrophotofluorometer; the former are uncorrected. Fluorescence lifetimes were determined on an ISS K2 multifrequency phase fluorometer using the 442 nm line (30 mW) of a Kimmon HeCd laser (for BTCS) or the ultraviolet lines (100 mW) of a Spectra-Physics model 2065-7S argon ion laser (for dapoxyl sulfonamide) essentially as previously described. […]
In particular, emission of the bound form shifts from a peak at 605 nm to 530 nm, and increases about 90-fold, compared to the free form. […] The advantages of intensity ratios for accuracy in quantitating concentrations of metal ions such as calcium are by now widely appreciated. These intensity changes permit the affinity of holocarbonic anhydrase for Dapoxyl sulfonamide to be determined as […] (data not shown). The intensity increase of dapoxyl sulfonamide is also accompanied by a large increase in fluorescence lifetime. We measured the frequency-dependent phase angles and demodulation of dapoxyl sulfonamide free in solution, in the presence of holocarbonic anhydrase II, and in the presence of sonicated unilamellar vesicles of DOPC/cholesterol 3:1 (0.1 M). […]

[3] = target: T3, wild type human carbonic anhydrase II, holoprotein (holo-CA) (Homo sapiens, UniProt P00918); assay: KD of the diffusible inhibitor ABD-N for the holoprotein; assay type: binding
T3 construct: made in house; host or cells: E. coli
Description: Genes for wild type human carbonic anhydrase II and variants were isolated, constructed, and expressed in E. coli as previously described. ABD-N was synthesized by coupling ABD-F (Molecular Probes, Eugene, Oreg.) with excess ethanolamine in DMF at room temperature for 4 hours and lyophilizing. Zn(II) was removed from holo-CA to make apo-CA by treatment with dipicolinate as previously described. Fluorescence anisotropy measurements were obtained on an SLM AB-2 spectrophotofluorimeter according to the manufacturer's recommendations, under the spectral conditions given in the figures.
The changes in anisotropy are also dramatic, going from 0.08 to 0.23 as the apoprotein becomes saturated with Zn(II) (FIG. 37); the ordinary accuracy and precision of such measurements is ±0.003. The apparent KD of the enzyme for Zn(II) under these conditions is about 20 picomolar, which is somewhat higher than published values obtained under slightly different conditions.
The use of a separate, diffusible inhibitor like ABD-N can create difficulties, however. […] This Cu(II) determination, while clearly representing a […] response, cannot be due to simple collisional quenching by the Cu(II) at these low concentrations,and furthermore is more than one thousand-fold more sensitive than previous fluorescence-based determinations of Cu(II).

[4] = target: T1, recombinant human carbonic anhydrase II, wild type, holoprotein (holo-CA, Zn(II) bound); settings: comparison value, conditions not given; read-out: affinity (dansylamide, comparison value); cited from earlier work

NS(=O)(=O)c1ccc(SCCO)c2nonc12 [ABD-M, 7-fluorobenz-2-oxa-1,3,-diazole-4-sulfonamide+beta-mercaptoethanol adduct]
Kd [1]: 300 nM

CN(C)c1ccc(-c2cnc(-c3ccc(S(N)(=O)=O)cc3)o2)cc1 [Dapoxyl sulfonamide]
Kd [2]: 300 nM

NS(=O)(=O)c1ccc(NCCO)c2nonc12 [ABD-N, 7-fluorobenz-2-oxa-1,3,-diazole-4-sulfonamide:ethanolamine adduct]
Kd [3]: ~300 nM

CN(C)c1cccc2c(S(N)(=O)=O)cccc12 [dansylamide]
Kd [4]: 800 nM
